Data: ChEMBL document CHEMBL5370623, “Discovery of Quinazoline-2,4(1H,3H)-dione Derivatives Containing a Piperizinone Moiety as Potent PARP-1/2 Inhibitors─Design, Synthesis, In Vivo Antitumor Activity, and X-ray Crystal Structure Analysis” (J Med Chem, 2023)
Converted amounts (≈) assume the structure as drawn. The source made the active and inactive calls. No cut-off for these calls is given here.

What was measured:
[1] = system: MX1; test: Cytotoxicity against human MX1 cells […] assessed as inhibition of cell growth measured after 72 hrs by MTT assay; type: functional, cell-based; conditions: MX1, 72 h
[2] = biological target: Poly [ADP-ribose] polymerase 2 (Homo sapiens, UniProt Q9UGN5); test: Inhibition of human recombinant PARP2 expressed in Escherichia coli BL21(DE3) incubated for 1 hr by ELISA assay
Sequence of Poly [ADP-ribose] polymerase 2 (Q9UGN5 whole entry): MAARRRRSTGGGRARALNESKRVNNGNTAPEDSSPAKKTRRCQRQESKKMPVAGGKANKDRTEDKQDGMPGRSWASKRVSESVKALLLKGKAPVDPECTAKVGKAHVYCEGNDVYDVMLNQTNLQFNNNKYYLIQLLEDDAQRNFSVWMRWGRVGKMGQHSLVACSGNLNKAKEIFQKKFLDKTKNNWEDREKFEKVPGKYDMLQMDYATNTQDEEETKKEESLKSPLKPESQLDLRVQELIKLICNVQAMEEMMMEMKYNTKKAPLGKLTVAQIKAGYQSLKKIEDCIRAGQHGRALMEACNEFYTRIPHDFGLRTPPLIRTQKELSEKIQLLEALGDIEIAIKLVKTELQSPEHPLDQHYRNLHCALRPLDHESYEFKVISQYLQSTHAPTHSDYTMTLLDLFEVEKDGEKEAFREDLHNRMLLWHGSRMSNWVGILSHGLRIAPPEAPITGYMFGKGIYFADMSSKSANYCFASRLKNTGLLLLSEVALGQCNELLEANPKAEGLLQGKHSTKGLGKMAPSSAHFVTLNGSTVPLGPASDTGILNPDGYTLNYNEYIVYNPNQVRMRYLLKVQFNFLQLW

[3] = system: MX1; test: Potentiation factor, ratio of IC50 for cytotoxicity against human MX1 cells to IC50 for cytotoxicity against human MX1 cells in presence of temozolomide; type: functional
[4] = biological target: T1, Poly [ADP-ribose] polymerase 1 (Homo sapiens, UniProt P09874); test: Inhibition of human recombinant PARP1 expressed in Escherichia coli BL21(DE3) incubated for 1 hr by ELISA assay
T1 sequence (P09874 whole entry): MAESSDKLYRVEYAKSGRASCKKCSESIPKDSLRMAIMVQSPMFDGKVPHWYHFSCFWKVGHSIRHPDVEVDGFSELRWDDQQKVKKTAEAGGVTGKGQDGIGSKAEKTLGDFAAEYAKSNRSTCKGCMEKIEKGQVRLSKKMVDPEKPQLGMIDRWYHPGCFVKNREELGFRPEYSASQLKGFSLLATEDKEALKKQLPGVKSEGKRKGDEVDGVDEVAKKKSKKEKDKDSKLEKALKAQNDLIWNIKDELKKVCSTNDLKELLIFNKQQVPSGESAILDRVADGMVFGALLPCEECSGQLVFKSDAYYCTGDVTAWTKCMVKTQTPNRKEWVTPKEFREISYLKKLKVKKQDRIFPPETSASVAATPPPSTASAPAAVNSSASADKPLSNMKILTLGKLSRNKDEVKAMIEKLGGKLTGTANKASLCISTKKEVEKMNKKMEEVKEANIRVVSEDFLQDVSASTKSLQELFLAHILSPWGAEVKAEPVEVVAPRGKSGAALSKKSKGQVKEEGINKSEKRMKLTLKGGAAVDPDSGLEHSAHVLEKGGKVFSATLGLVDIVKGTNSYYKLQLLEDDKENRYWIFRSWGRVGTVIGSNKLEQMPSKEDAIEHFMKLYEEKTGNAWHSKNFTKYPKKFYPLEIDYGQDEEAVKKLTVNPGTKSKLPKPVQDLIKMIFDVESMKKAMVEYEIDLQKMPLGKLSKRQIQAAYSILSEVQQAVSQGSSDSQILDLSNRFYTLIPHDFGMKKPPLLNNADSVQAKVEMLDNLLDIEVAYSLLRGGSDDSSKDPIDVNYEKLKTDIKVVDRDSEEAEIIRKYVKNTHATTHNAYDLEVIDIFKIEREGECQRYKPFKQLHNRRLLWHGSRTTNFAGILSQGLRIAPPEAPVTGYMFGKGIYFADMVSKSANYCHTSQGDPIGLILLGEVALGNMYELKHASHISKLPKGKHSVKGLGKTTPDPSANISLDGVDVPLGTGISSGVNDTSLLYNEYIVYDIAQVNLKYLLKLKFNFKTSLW

[5] = biological target: T1, Poly [ADP-ribose] polymerase 1; test: Inhibition of human PARP1 in human MX1 cells assessed as enzyme-DNA trapping activity at 1 uM incubated for 24 hrs by Western blot analysis; type: cell-based
[6] = AUC (0 to t) in BALB/c mouse at 25 mg/kg, po measured upto 24 hrs by LC-MS/MS analysis; type: ADME, organism-based; parameters: time < 24 hrs, dose 25 mg/kg, route po; conditions: in vivo
[7] = AUC (0 to infinity) in BALB/c mouse at 25 mg/kg, po measured upto 24 hrs by LC-MS/MS analysis; type: ADME, organism-based; parameters: dose 25 mg/kg, time < 24 hrs, route po; conditions: in vivo
[8] = MRT (0 to t) in BALB/c mouse at 25 mg/kg, po measured upto 24 hrs by LC-MS/MS analysis; type: ADME, organism-based; conditions: in vivo
[9] = Aqueous solubility of the compound; type: physicochemical
[10] = Tmax in BALB/c mouse at 25 mg/kg, po measured upto 24 hrs by LC-MS/MS analysis; type: ADME, organism-based; conditions: in vivo
[11] = Half life in BALB/c mouse at 25 mg/kg, po measured upto 24 hrs by LC-MS/MS analysis; type: ADME, organism-based; conditions: in vivo
[12] = Cmax in BALB/c mouse at 25 mg/kg, po measured upto 24 hrs by LC-MS/MS analysis; type: ADME, organism-based; parameters: time < 24 hrs, dose 25 mg/kg, route po; conditions: in vivo
[13] = MRT (0 to infinity) in BALB/c mouse at 25 mg/kg, po measured upto 24 hrs by LC-MS/MS analysis; type: ADME, organism-based; conditions: in vivo

Row | SMILES | IC50 [1] [nM] | IC50 [2] [nM] | PF50 [3] | IC50 [4] [nM] | PARP1-DNA trapping activity [5] | other results
1 | C#CCN1CCN(C(=O)c2cc(Cn3c(=O)[nH]c(=O)c4ccccc43)ccc2F)CC1=O | 28.5 | 2.92 | >10 | 15.5 | – | –
2 | CC(C)CN1CCN(C(=O)c2cc(Cn3c(=O)[nH]c(=O)c4ccccc43)ccc2F)CC1=O | 22.4 | 0.38 | >10 | 4.68 | – | –
3 | O=C1CN(C(=O)c2cc(Cn3c(=O)[nH]c(=O)c4ccccc43)ccc2F)CCN1 | > 100 | 1.88 | 3.23 | 4.33 | – | –
4 | O=C1CN(C(=O)c2cc(Cn3c(=O)[nH]c(=O)c4ccccc43)ccc2F)CCN1Cc1ccccc1 | 3.12 | 0.77 | >10 | 2.54 | Active | –
5 | CN(C)CCN1CCN(C(=O)c2cc(Cn3c(=O)[nH]c(=O)c4ccccc43)ccc2F)CC1=O | > 100 | 6.75 | – | 2.39 | – | –
6 | O=C(c1cc(Cn2c(=O)[nH]c(=O)c3ccccc32)ccc1F)N1CCN(C2CCCC2)C(=O)C1 | 13.2 | 0.29 | >10 | 1.4 | Active | –
7 | CCCCCN1CCN(C(=O)c2cc(Cn3c(=O)[nH]c(=O)c4ccccc43)ccc2F)CC1=O | 331 | 0.94 | >10 | 2.71 | Active | –
8 | O=C1CN(C(=O)c2cc(Cn3c(=O)[nH]c(=O)c4ccccc43)ccc2F)CCN1CCC1CC1 | 4.15 | 2.15 | >10 | 2.08 | Active | –
9 | COCCN1CCN(C(=O)c2cc(Cn3c(=O)[nH]c(=O)c4ccccc43)ccc2F)CC1=O | 61.3 | 0.83 | – | 4.86 | Active | –
10 | CC(C)(C)CN1CCN(C(=O)c2cc(Cn3c(=O)[nH]c(=O)c4ccccc43)ccc2F)CC1=O | 23.2 | 0.33 | >10 | 3.45 | – | –
11 | CCCN1CCN(C(=O)c2cc(Cn3c(=O)[nH]c(=O)c4ccccc43)ccc2F)CC1=O | 16.5 | 3.48 | >10 | 11.8 | – | –
12 | O=C(c1cc(Cn2c(=O)[nH]c(=O)c3ccccc32)ccc1F)N1CC(=O)N2CCCCC2C1 (configuration not stated) | 32.6 | 3.41 | >10 | 9.85 | – | –
13 | O=C1CN(C(=O)c2cc(Cn3c(=O)[nH]c(=O)c4ccccc43)ccc2F)CCN1CC1CC1 | 14.9 | 2.63 | >10 | 9.75 | – | –
14 | COC(=O)CN1CCN(C(=O)c2cc(Cn3c(=O)[nH]c(=O)c4ccccc43)ccc2F)CC1=O | 45 | 2.67 | 4.64 | 8.88 | – | –
15 | CCC(C)N1CCN(C(=O)c2cc(Cn3c(=O)[nH]c(=O)c4ccccc43)ccc2F)CC1=O (configuration not stated) | 33.9 | 0.44 | >10 | 3.76 | – | –
16 | CC(C1CCCC1)N1CCN(C(=O)c2cc(Cn3c(=O)[nH]c(=O)c4ccccc43)ccc2F)CC1=O (configuration not stated) | 1.18 | 0.22 | >10 | 3.67 | Active | –
17 | O=C(c1cc(Cn2c(=O)[nH]c(=O)c3ccccc32)ccc1F)N1CCN(C2CCCCC2)C(=O)C1 | 5.79 | 0.33 | >10 | 2.85 | – | –

Row | SMILES | IC50 [1] [nM] | IC50 [2] [nM] | PF50 [3] | IC50 [4] [nM] | PARP1-DNA trapping activity [5] | other results
18 | CC(C)CCN1CCN(C(=O)c2cc(Cn3c(=O)[nH]c(=O)c4ccccc43)ccc2F)CC1=O | 12.4 | 0.92 | >10 | 3.03 | – | –
19 | CN1CCN(C(=O)c2cc(Cn3c(=O)[nH]c(=O)c4ccccc43)ccc2F)CC1=O | 51 | 5.62 | 1.18 | 3.81 | – | –
20 | O=C1CN(C(=O)c2cc(Cn3c(=O)[nH]c(=O)c4ccccc43)ccc2F)CCN1CC1CCCCC1 | 9.39 | 0.24 | >10 | 2.38 | Active | –
21 | CCN1CCN(C(=O)c2cc(Cn3c(=O)[nH]c(=O)c4ccccc43)ccc2F)CC1=O | 23.3 | 1.22 | >10 | 7.59 | – | –
22 | CC(C)=CCN1CCN(C(=O)c2cc(Cn3c(=O)[nH]c(=O)c4ccccc43)ccc2F)CC1=O | 6.54 | 2.35 | >10 | 9.85 | Active | –
23 | CC(C1CCCCC1)N1CCN(C(=O)c2cc(Cn3c(=O)[nH]c(=O)c4ccccc43)ccc2F)CC1=O (configuration not stated) | 3.65 | 0.26 | >10 | 4.92 | – | –
24 | O=C(c1cc(Cn2c(=O)[nH]c(=O)c3ccccc32)ccc1F)N1CC(=O)N2CCCC2C1 (configuration not stated) | 46.1 | 9.2 | >10 | 17.2 | – | –
25 | O=C1CN(C(=O)c2cc(Cn3c(=O)[nH]c(=O)c4ccccc43)ccc2F)CCN1CC1CCCC1 | 23.2 | 0.1 | >10 | 2.46 | Active | –
26 | CCC(C)CN1CCN(C(=O)c2cc(Cn3c(=O)[nH]c(=O)c4ccccc43)ccc2F)CC1=O (configuration not stated) | 10.4 | 1.32 | >10 | 3.02 | – | –
27 | O=C1CN(C(=O)c2cc(Cn3c(=O)[nH]c(=O)c4ccccc43)ccc2F)CCN1CC(F)(F)F | 18.6 | 1.87 | >10 | 3.79 | – | –
28 | C=CCN1CCN(C(=O)c2cc(Cn3c(=O)[nH]c(=O)c4ccccc43)ccc2F)CC1=O | > 100 | 0.71 | – | 4.18 | – | –
29 | CCC(CC)N1CCN(C(=O)c2cc(Cn3c(=O)[nH]c(=O)c4ccccc43)ccc2F)CC1=O | 0.65 | 0.79 | >10 | 3.86 | – | AUC(0-t) at 24 h [6]: 0.316 µg·h/mL; AUC(0-inf) [7]: 0.34 µg·h/mL; MRT last at 24 h [8]: 32.4 min; solubility [9]: 0.0304 mg/mL (≈ 65.1 µM); Tmax [10]: 4.8 min; half-life [11]: 30.6 min; Cmax [12]: 0.515 µg/mL; MRT inf [13]: 42 min
30 | O=C1CN(C(=O)c2cc(Cn3c(=O)[nH]c(=O)c4ccccc43)ccc2F)CCN1CCCO | 60.2 | 6.31 | 4.38 | 17.1 | – | –
31 | O=C(c1cc(Cn2c(=O)[nH]c(=O)c3ccccc32)ccc1F)N1CCN(c2ccccc2)C(=O)C1 | 4.88 | 0.62 | >10 | 1.02 | Active | –
32 | CCCCN1CCN(C(=O)c2cc(Cn3c(=O)[nH]c(=O)c4ccccc43)ccc2F)CC1=O | 20 | 0.49 | >10 | 2.72 | – | –
33 | CC(C)N1CCN(C(=O)c2cc(Cn3c(=O)[nH]c(=O)c4ccccc43)ccc2F)CC1=O | 30.9 | 1.72 | >10 | 5.06 | – | –
34 | CC(C)C(C)N1CCN(C(=O)c2cc(Cn3c(=O)[nH]c(=O)c4ccccc43)ccc2F)CC1=O (configuration not stated) | 1.67 | 1.86 | >10 | 9 | Active | –
